Results taken from PMC11674305, “Inhibition of Neural Crest Cell Migration by Strobilurin Fungicides and Other Mitochondrial Toxicants” (Cells, 2024).
Where “and” joins values, the source holds several entries; their conditions need not be identical. Identical values can stand only once. Like-named read-outs stand apart in the source and are kept apart here.

Experiments:
Type in all cases: cell-based, human
neural crest cells (NCC) [1] = experiment: Intracellular ATP measurement (CellTiterGlo); settings: at BMC10 (V) of cMINC; for ATP levels: after 60 min
Experimental: Cells were seeded at a density of 20,000 cells/well. The NCCs were treated with the BMC10 (V) of the cMINC screen for one hour, six hours or 24 h. Then, a CellTiterGlo-Triton mix was prepared. Therefore, a 0.5% Triton solution in PBS was prepared, and the commercial reagent mix CellTiterGlo 2.0 (Promgea, Madison, WI, USA) was added in a 1:1 ratio. An amount of 50 µL/well of the mix was added to 100 µL of medium. The plate was shaken for two minutes, and 100 µL of the cell mixture was transferred to a white measurement plate. For the blank value, only medium with the mix was measured. Luminescence data of samples were normalized to DMSO solvent controls, and the ATP data are given in % relative to “untreated cells”.

neural crest cells (NCC) [2] = experiment: cMINC (UKN2) assay: circular migration of neural crest cells, with viability; settings: for Migration / Viability: Pre-Screen 1, single concentration 1:1000 of stock, in most cases 100 μM; for BMC25 (M): migration; for Ratio: migration/cytotoxicity ratio, hit requires ≥ 1.3, HTC used where no viability effect
Experimental: The research group initially developed the first version of the test in 2012 [40]. The test has been further improved and characterized. To perform the cMINC assay, NCCs were thawed in N2-S Medium and seeded on the day of migration-1 (DoM-1) on a 96-well polystyrene plate (Corning, Glendale, AZ, USA) around stoppers, to create a cell-free area of 2 mm diameter (Platypus Technologies, Madison, WI, USA). The cells were resuspended in N2-S Medium supplemented with […] of the cytokines EGF and FGF, and then counted and seeded around the stoppers at a density of 95,000 cells/cm^2. After 24 h, the stoppers were removed, and the medium was exchanged. The removal of the stoppers initiates migration of the NCCs into the cell-free area. For the treatment, the 5x-concentrated toxicant solution was added to the medium 24 h after stopper removal.
On day 2, cells were stained with 533 nM calcein-AM and 1 μg/mL H-33342 (both from Sigma, Steinheim, Germany) and observed using two different channels on the Cellomics ArrayScan VTI imaging microscope (Thermo Fisher, Pittsburgh, PA, USA) to assess viability and migration. For the migration, four pictures were taken in the region of interest (ROI) (5× magnification objective). Migration data were obtained using the software “Ringassay” (http://invitrotox.uni-konstanz.de/ (accessed on 3 November 2024)), which can estimate the previously cell-free area and count the number of H-33342 and calcein-AM double-positive cells. Cell viability was assessed by taking four pictures outside of the ROI with 10× magnification objective. Viable cells were defined as H-33342 and calcein-AM double-positive cells and calculated by an automatic algorithm of the ArrayScan VTI 700 Series software as described earlier. […] Each plate included wells for testing of negative (0.1% DMSO solvent) and positive controls (200 nM cytochalasin D) in addition to the wells for blinded samples. The data from control wells were used as acceptance criteria of the assay. […] Renormalization of the concentration–response curves was performed after a visual inspection that the two lowest test-concentration data points are in the no-effect range. The average response (relative to solvent control) of the lowest two test concentrations was calculated, and all other data points of the same curve were divided by this average value. The calculations of the benchmark concentrations 10 for viability (BMC10 (V)) and 25 for migration (BMC25 (M)) were performed with the online available BMC software (http://invitrotox.uni-konstanz.de/ (accessed on 4 November 2024)).

neural crest cells (NCC) [3] = experiment: Seahorse oxygen consumption rate (mitochondrial stress test); settings: at BMC10 (V) of cMINC, after basal respiration recording
Experimental: The Seahorse bioanalyzer simultaneously measures cellular oxygen consumption rates (OCR) and extracellular acidification rates (ECAR). Therefore, NCCs were seeded at least two days prior to the assays at a density of 80,000 cells/well on Seahorse XF96 V3 PS Cell Culture Microplates (Agilent, Santa Clara, CA, USA) in either glucose medium or galactose medium. After 24 h, the medium was exchanged. For the real-time ATP production rate and mitochondrial stress assay, the cartridge was hydrated at 0% CO2 and 37 °C, and the seahorse was turned on to stabilize the temperature one day prior. The medium was changed to Seahorse XF DMEM Medium (Agilent, Santa Clara, CA, USA) supplemented with 2 mM L-glutamine, 1 mM pyruvate and 18 mM glucose or galactose 1 h before the start of the assays. Directly before the start of the assay, the medium was exchanged again. The sensor cartridge was loaded with the test compounds anchored to the BMC10 (V) of the cMINC screen and the recommended concentrations of calibration compounds for a mitochondrial stress test. These were 5 μM oligomycin, 15 μM carbonyl cyanide p-trifluoro methoxyphenylhydrazone (FCCP) and 5 μM rotenone plus 5 μM antimycin A. Additionally, 1 μg/mL H-33342 was added to the rotenone and antimycin A injection to perform afterwards a cell count (Cellomics, Waltham, MA, USA), to which the data were normalized. Six technical replicates were used for control conditions, and three technical replicates were used for other samples. The software Seahorse Analytics (Agilent, Santa Clara, CA, USA) was used for the evaluation (https://seahorseanalytics.agilent.com (accessed on 30 October 2024)).

neural crest cells (NCC) [4] = experiment: Transwell migration assay (FBS chemoattractant, 6 h); settings: for effect on transwell migration: negative controls, 100 µM
Experimental: Cells were seeded at a density of 50,000 cells/well (150,000 cells/cm^2) into the upper chamber (insert) of the 96-well transwell plates (pore size 8 μm, polycarbonate membrane, Corning, Glendale, AZ, USA). The cells were stimulated to migrate through the membrane by medium supplemented with 5% of the chemoattractant fetal bovine serum (FBS) (PAA Laboratories, Pasching, Austria) in the lower chamber (reservoir). For testing of migration inhibition upon compound treatment, compounds were used at a concentration of BMC10 (V) of prior cMINC testing. Three technical replicates per condition were used. As a control for “unstimulated” migration, medium without any chemoattractant was tested. As an endpoint specific control for “inhibited” migration, CytoD with a concentration of 200 nM was used. After 6 h incubation time, the medium was aspirated, and reservoirs were washed with DPBS. Afterwards, reservoirs were filled with EDTA dissociation solution (DPBS supplemented with 0.1% 0.5 M EDTA UltraPure pH 8.0 (Thermo Fisher Scientific, Waltham, MA, USA), and 0.18% NaCl) containing 0.25 μL/mL calcein-AM and incubated for 30 min at 37 °C. The plates were then centrifuged at 300× g for 5 min (1200 rpm, Heraeus Multifuge 1 S-R, ThermoScientific) to remove migrated cells from the membrane. The tray with 96 wells of permeable inserts was removed, and the receiver plate was measured in the spectrophotometer (TECAN, Männedorf, Switzerland) with an emission wavelength of 520 nm. After subtraction of the blank values, the number of migrated cells was normalized to that of cells stimulated with FBS.
To perform the experiments under mitochondria-dependent conditions, the cells were handled exactly in the same way, but the medium was adapted. The N2-S medium was adjusted, so that no glucose was present but galactose. The medium consisted of SILAC^TM Advanced DMEM/-F12 FLEX (Gibco/Fisher Scientific, Hampton, NH, USA), 15 μg/mL insulin, 400 μM GlutaMAX, 0.7 mM L-Arginine, 0.5 mM L-Lysine, 21.5 µM Phenol Red, 20 nM progesterone, 100 μM putrescine and 30 nM selenium, 92.5 μg/mL apotransferrin, 4.7 mg/mL galactose (18 mM). The cytokines 20 ng/mL EGF and 20 ng/mL FGF2 were always freshly added to each run.

[5] = viability, primary screen, 24 h exposure, * = no effect up to highest tested concentration
[6] = Homo sapiens, 24 h, primary screen, 24 h exposure, read-out: BMC25

Structure (SMILES) | Migration (neural crest cells (NCC) [2]) | Viability (neural crest cells (NCC) [2]) | Ratio (neural crest cells (NCC) [2]) | BMC10 (V) (neural crest cells (NCC) [2]; [5]) | effect on oxygen consumption rate (OCR) after injection (neural crest cells (NCC) [3]) | BMC25 (M) (neural crest cells (NCC) [2]; [6]) | further results
CO/C=C(/C(=O)OC)c1ccccc1Oc1cc(Oc2ccccc2C#N)ncn1 [Azoxystrobin, azoxystrobin] | 59 % of control | 95 % of control | 3.5 | > 100 µM | – | – | ATP levels (neural crest cells (NCC) [1]): did not decrease; BMC25 (M) (neural crest cells (NCC) [2]; primary screen, 24 h exposure): 2.9e-05 M and 3e-05 M; effect on viability in the tested concentration range (neural crest cells (NCC) [2]; primary screen): did not reduce viability at all
CCOCn1c(-c2ccc(Cl)cc2)c(C#N)c(Br)c1C(F)(F)F [Chlorfenapyr, chlorfenapyr] | 0 % of control | – | 1.3 | – | no decrease in OCR | 5.1e-06 M | decline of ATP (neural crest cells (NCC) [1]; after 1 h): > 25%; decline of ATP (neural crest cells (NCC) [1]; after 24 h): > 90%; BMC10 (V) (neural crest cells (NCC) [2]; human, 24 h): 6.8 µM
Cc1ccc(-c2c(Cl)nc(C#N)n2S(=O)(=O)N(C)C)cc1 [Cyazofamid, cyazofamid] | 29 % of control | – | 2.6 | – | the OCR increased continuously | 7.8e-06 M | BMC10 (V) (neural crest cells (NCC) [2]; human, 24 h): 20 µM
Cc1nn(C)c(Oc2ccccc2)c1C=NOCc1ccc(C(=O)OC(C)(C)C)cc1 [Fenpyroximate, fenpyroximate] | 38 % of control | 95 % of control | 1.9 | 7 µM and 6.6 µM | completely shut down the mitochondrial respiration | 3e-06 M | ATP levels (neural crest cells (NCC) [1]): did not decrease; decrease in ATP levels (neural crest cells (NCC) [1]; after 6 h): > 25%
O=[N+]([O-])c1cc(C(F)(F)F)c(Cl)c([N+](=O)[O-])c1Nc1ncc(C(F)(F)F)cc1Cl [Fluazinam, fluazinam] | 0 % of control | 2 % of control | 2.0 | 0.8 µM | no decrease in OCR | 4e-07 M | decline of ATP (neural crest cells (NCC) [1]; after 1 h): > 25%; decline of ATP (neural crest cells (NCC) [1]; after 24 h): > 90%
CO/N=C(/C1=NOCCO1)c1ccccc1Oc1ncnc(Oc2ccccc2Cl)c1F [Fluoxastrobin, fluoxastrobin] | 60 % of control | 95 % of control | 4.6 | > 100 µM | – | 2e-05 M | effect on viability in the tested concentration range (neural crest cells (NCC) [2]; primary screen): did not reduce viability at all
CO/N=C(/C(=O)OC)c1ccccc1COc1ccccc1C [Kresoxim-methyl, kresoxim-methyl] | 72 % of control | 33 % of control | 1.6 | 43 µM | – | 2.7e-05 M | –
O=C1O[C@H]([C@@H](O)CO)C(O)=C1O [L-ascorbic acid, reference compound] | 100 % of control | – | – | – | – | – | effect on transwell migration (neural crest cells (NCC) [4]): no inhibited migration was observed
COC(=O)N(OC)c1ccccc1COc1ccn(-c2ccc(Cl)cc2)n1 [Pyraclostrobin, pyraclostrobin] | 72 % of control | 97 % of control | 2.6 | 44 µM | – | 1.7e-05 M | ATP levels (neural crest cells (NCC) [1]): did not decrease
CC(C)(C)c1ccc(CSc2cnn(C(C)(C)C)c(=O)c2Cl)cc1 [Pyridaben, pyridaben] | 58 % of control | – | 1.8 | – | completely shut down the mitochondrial respiration | 4.7e-05 M | BMC10 (V) (neural crest cells (NCC) [2]; human, 24 h): 83 µM
C=C(C)[C@H]1Cc2c(ccc3c2O[C@@H]2COc4cc(OC)c(OC)cc4[C@@H]2C3=O)O1 [Rotenone, rotenone] | 0 % of control | 0 % of control | 1.9 | 0.1 µM | – | – | IC25 (neural crest cells (NCC) [2]; Homo sapiens, 24 h, read-out: BMC25 (M)): 6e-08 M
O=C1NS(=O)(=O)c2ccccc21 [Saccharin sodium hydrate, reference compound] | 103 % of control | – | – | – | – | – | effect on transwell migration (neural crest cells (NCC) [4]): no inhibited migration was observed
CON=C(C(=O)OC)c1ccccc1CON=C(C)c1cccc(C(F)(F)F)c1 [Trifloxystrobin, trifloxystrobin] | 85 % of control | – | 1.4 | – | – | 1.3e-05 M | BMC10 (V) (neural crest cells (NCC) [2]; human, 24 h): 18 µM
C=C1[C@@H](C)[C@H]2[C@H](Cc3ccccc3)NC(=O)[C@]23[C@H](OC(C)=O)/C=C/[C@@](C)(O)C(=O)[C@@H](C)C/C=C/[C@H]3[C@@H]1O [cytochalasin D, Cytochalasin D] | – | – | – | – | – | – | reduced migration (neural crest cells (NCC) [4]; 200 nM, positive control): 75%
